Consider one compound from PMC3280428 (Journal of Molecular Biology, 2011).

A short description of data set [1]: Cytotoxicity. The settings on record: 129S2/SvPasCrl, mouse. It is filed as cell-based.
The nature of data set [2]: Cytotoxicity. Type of data set: cell-based. The settings on record: human.
Data set [3] addresses T1, KIAA1718 Jumonji domain (residues 92–488) (Homo sapiens, UniProt Q6ZMT4).
T1 sequence (Q6ZMT4 92-488): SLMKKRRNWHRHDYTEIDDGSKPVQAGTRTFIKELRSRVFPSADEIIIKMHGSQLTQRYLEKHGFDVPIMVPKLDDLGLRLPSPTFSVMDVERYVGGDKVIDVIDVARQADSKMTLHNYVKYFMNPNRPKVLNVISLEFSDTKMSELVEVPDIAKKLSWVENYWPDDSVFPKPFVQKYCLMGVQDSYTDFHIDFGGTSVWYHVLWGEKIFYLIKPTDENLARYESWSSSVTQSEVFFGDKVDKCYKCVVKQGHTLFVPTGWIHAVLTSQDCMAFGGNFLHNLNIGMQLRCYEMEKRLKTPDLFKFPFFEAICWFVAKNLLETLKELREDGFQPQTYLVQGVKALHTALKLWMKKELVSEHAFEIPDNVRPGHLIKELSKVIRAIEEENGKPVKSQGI
As to the kind of experiment: Mass-spectrometry-based demethylation inhibition assay, KIAA1718 Jumonji domain. Type of data set: biochemical.

Values joined by “and” are separate entries in the source; they are usually repeats but may differ in a detail not shown here. Equal values may be shown once.

For `COc1cc2nc(N3CCCN(C)CC3)nc(NC3CCN(Cc4ccccc4)CC3)c2cc1OC` [BIX-01294], the values for the cytotoxic concentration (CC50) at 24 h in “Cytotoxicity [1]” and in the data set “Cytotoxicity [2]” were 7.4 µM and 3.2 µM, respectively. In addition, in data set [3], the IC50 is 16.5 µM and ~16.5 µM. The same compound displayed an inhibition constant Ki in data set [3] of 15.3 µM.

As a reminder, the CC50 is the concentration giving 50% cytotoxicity. Read a low CC50 as harm at low concentration. What is called IC50 is the concentration needed to halve the response being measured. As usually defined, the Ki is the equilibrium dissociation constant of an inhibitor or competing ligand from its target.
